The values that follow come from ChEMBL document CHEMBL1155333, “Amine substituted N-(1H-benzimidazol-2ylmethyl)-5,6,7,8-tetrahydro-8-quinolinamines as CXCR4 antagonists with potent activity against HIV-1” (Bioorg Med Chem Lett, 2009).

The test system of data set [1] is Human immunodeficiency virus 1. Briefly: Antiviral activity against HIV1 3B infected in human HOS cells. It is filed as functional, organism-based. Conditions: Human immunodeficiency virus 1, 3B.
A short description of data set [2]: Cytotoxicity against human HOS cells. It is filed as cell-based.
Data set [3] addresses C-X-C chemokine receptor type 4 (Homo sapiens) (UniProt P61073). Briefly: Antagonist activity at CXCR4 by noncompetitive binding assay.
Data set [4] deals with Human immunodeficiency virus 1. Briefly: Ratio of AMD070 IC50 to compound IC50 for HIV1 3B infected in human HOS cells. It is filed as functional.

Calls of active or inactive are those of the source. No cut-off for these calls is given here. Where only a bound is given, the exact number is not on record here.

Chain of C-X-C chemokine receptor type 4 (Homo sapiens) (P61073 whole entry): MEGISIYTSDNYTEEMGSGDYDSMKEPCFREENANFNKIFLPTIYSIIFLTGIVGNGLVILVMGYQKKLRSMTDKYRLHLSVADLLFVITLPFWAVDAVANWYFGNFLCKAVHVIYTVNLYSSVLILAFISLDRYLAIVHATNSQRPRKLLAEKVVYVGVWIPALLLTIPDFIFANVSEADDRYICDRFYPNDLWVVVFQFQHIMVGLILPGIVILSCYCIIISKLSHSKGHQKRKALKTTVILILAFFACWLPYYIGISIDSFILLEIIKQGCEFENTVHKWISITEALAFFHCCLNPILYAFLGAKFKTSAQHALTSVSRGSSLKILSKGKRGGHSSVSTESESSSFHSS

`CN1CCN(c2cccc3nc(CN(C)[C@@H]4CCCc5cccnc54)[nH]c23)CC1` came in with an IC50 in data set [1] of 6.9 nM. The molecule also came in with a cytotoxic concentration (CC50) in data set [2] of 12300 nM. Further, in data set [3], the result was Active.

In turn, `CN(Cc1nc2cccc(C(=O)NCCCN)c2[nH]1)C1CCCc2cccnc21` (stereo not given) yielded an IC50 in data set [1] of 134 nM. In data set [2], this molecule came in with a half-maximal cytotoxic concentration (CC50) above 20000 nM. Besides, the result in data set [3] was Active.

Molecule `CN(Cc1nc2cccc(C(=O)NCCc3cnc[nH]3)c2[nH]1)C1CCCc2cccnc21` (stereo not given) came in with a half-maximal inhibitory concentration (IC50) in data set [1] of 19 nM. Besides, the CC50 in data set [2] is above 10000 nM. For the same molecule, the outcome in data set [3] was Active.

As for `CN(Cc1nc2ccccc2n1CCCCCN)C1CCCc2cccnc21` (stereo not given), in data set [1], it took 228 nM to reach half-maximal inhibition (IC50). In addition, the CC50 in data set [2] is 4500 nM. Further, the result in data set [3] was Active.

As for `CN1CCN(c2cccc3nc(CN(C)C4CCCc5cccnc54)[nH]c23)CC1` (racemic), the 50% inhibitory concentration (IC50) in data set [1] was determined as 2 nM. This molecule also registered a CC50 in data set [2] of 14000 nM. Also, the result in data set [3] was Active. Also, the “Ratio IC50” value in data set [4] worked out at 10.

In data set [1], `CN(Cc1nc2ccccc2n1CCN)C1CCCc2cccnc21` (stereo not given) gave an IC50 of 197 nM. In data set [2], this molecule returned a CC50 above 20000 nM. The result in data set [3] was Active.

As to `CN(Cc1nc2ccccc2n1CCCCN)C1CCCc2cccnc21` (stereo not given), in data set [1], the IC50 stood at 144 nM. The molecule also had a 50% cytotoxic concentration (CC50) in data set [2] of 2900 nM. The result in data set [3] was Active.

Take `CN(C)CCCc1cccc2[nH]c(CN(C)C3CCCc4cccnc43)nc12` (stereo not given): the CC50 in data set [2] is 7500 nM. That is a single-digit micromolar value.

The molecule `CN(Cc1nc2c(CCCN)cccc2[nH]1)C1CCCc2cccnc21` (stereo not given) registered a CC50 in data set [2] of 10000 nM.

In the case of `CN(C)CCCc1cccc2nc(CN(C)C3CCCc4cccnc43)[nH]c12` (stereo not given), the half-inhibitory concentration (IC50) in data set [1] is 22 nM. Also, the result in data set [3] was Active.

As to `CN(C)CCCn1c(CN(C)C2CCCc3cccnc32)nc2ccccc21` (stereo not given), half-maximal inhibition in data set [1] (IC50) was put at 17 nM. The same molecule showed a CC50 in data set [2] of 16800 nM. The result in data set [3] was Active.

`CN(Cc1nc2cccc(N3CCNCC3)c2[nH]1)C1CCCc2cccnc21` (stereo not given) registered a half-inhibitory concentration (IC50) in data set [1] of 6 nM. In addition, the outcome in data set [3] was Active.

Take `CN(Cc1nc2ccccc2n1CCCNC(=N)N)C1CCCc2cccnc21` (stereo not given): half-maximal inhibition in data set [1] (IC50) required 26 nM. In data set [2], this molecule yielded a CC50 above 20000 nM. The outcome in data set [3] was Active.

In data set [1], `CN(Cc1nc2cccc(C(=O)NCCCCN)c2[nH]1)C1CCCc2cccnc21` (stereo not given) had an IC50 of 396 nM. Also, the CC50 in data set [2] is above 20000 nM. Further, the outcome in data set [3] was Active.

Molecule `CN(Cc1nc2cccc(C(=O)N3CCNCC3)c2[nH]1)C1CCCc2cccnc21` (stereo not given) yielded a concentration for half-maximal inhibition (IC50) in data set [1] of 46 nM. In data set [2], this molecule showed a half-maximal cytotoxic concentration (CC50) above 20000 nM. For the same molecule, the outcome in data set [3] was Active.

`CN(Cc1nc2cccc(C(=O)NCCN)c2[nH]1)C1CCCc2cccnc21` (stereo not given): in data set [1], the 50% inhibitory concentration (IC50) is 27 nM. Besides, the result in data set [3] was Active.

The molecule `CN(Cc1nc2c(CNCCc3c[nH]cn3)cccc2[nH]1)C1CCCc2cccnc21` (stereo not given) showed a cytotoxic concentration (CC50) in data set [2] above 20000 nM.

On to `CN1CCN(c2cccc3nc(CN(C)[C@H]4CCCc5cccnc54)[nH]c23)CC1`, for which half-maximal inhibition in data set [1] (IC50) was put at 0.6 nM. Half-maximal cytotoxicity in data set [2] (CC50) was put at 12500 nM. Moreover, in data set [3], the outcome was Active.

Consider `CN(Cc1nc2cccc(CCCN3CCCC3)c2[nH]1)C1CCCc2cccnc21` (stereo not given), for which, in data set [1], the half-inhibitory concentration (IC50) was found to be 23 nM. Further, in data set [3], the result was Active.

Take `CN(Cc1nc2cccc(CN3CCNCC3)c2[nH]1)C1CCCc2cccnc21` (stereo not given): the IC50 in data set [1] amounted to 13 nM. Also, in data set [3], the outcome was Active.

In data set [1], `CN(Cc1nc2cccc(CN)c2[nH]1)C1CCCc2cccnc21` (stereo not given) gave a half-maximal inhibitory concentration (IC50) of 1300 nM. The 50% cytotoxic concentration (CC50) in data set [2] was above 20000 nM. Besides, the result in data set [3] was Active.

In data set [2], `CN(Cc1nc2c(CN3CCNCC3)cccc2[nH]1)C1CCCc2cccnc21` (stereo not given) had a 50% cytotoxic concentration (CC50) of 12000 nM.

`NCCCCN(Cc1nc2ccccc2[nH]1)[C@H]1CCCc2cccnc21` [MAVORIXAFOR] registered an IC50 in data set [1] of 10 nM. The half-maximal cytotoxic concentration (CC50) in data set [2] is above 10000 nM. Further, the result in data set [3] was Active.

In data set [2], `CN1CCN(C(=O)c2cccc3[nH]c(CN(C)C4CCCc5cccnc54)nc23)CC1` (stereo not given) yielded a CC50 above 10000 nM.

As for `CN(Cc1nc2c(N3CCNCC3)cccc2[nH]1)C1CCCc2cccnc21` (stereo not given), the 50% cytotoxic concentration (CC50) in data set [2] was above 20000 nM.

In turn, `CN(Cc1nc2cccc(CNCCc3cnc[nH]3)c2[nH]1)C1CCCc2cccnc21` (stereo not given) came in with an IC50 in data set [1] of 41 nM. In addition, the result in data set [3] was Active.

Consider `CN(Cc1nc2c(CCCN3CCCC3)cccc2[nH]1)C1CCCc2cccnc21` (stereo not given), for which the midpoint of cytotoxicity in data set [2], the CC50, lay at 8200 nM.

`CN1CCN(C(=O)c2cccc3nc(CN(C)C4CCCc5cccnc54)[nH]c23)CC1` (stereo not given) yielded an IC50 in data set [1] of 33 nM. The outcome in data set [3] was Active.

`CN(Cc1nc2c(C(=O)NCCN)cccc2[nH]1)C1CCCc2cccnc21` (stereo not given): the 50% cytotoxic concentration (CC50) in data set [2] was above 10000 nM.

In data set [1], `CN(Cc1nc2ccccc2n1CCCN)C1CCCc2cccnc21` (stereo not given) showed a 50% inhibitory concentration (IC50) of 44 nM. The molecule also showed a half-maximal cytotoxic concentration (CC50) in data set [2] above 20000 nM. Besides, the outcome in data set [3] was Active.

Regarding `CN(Cc1nc2ccccc2n1CCCNC(=O)C(F)(F)F)C1CCCc2cccnc21` (stereo not given), the IC50 in data set [1] is 243 nM. For the same molecule, in data set [2], the CC50 stood at 10400 nM. Also, the result in data set [3] was Active.

`CN(Cc1nc2cccc(N3CCN(C(=O)OC(C)(C)C)CC3)c2[nH]1)C1CCCc2cccnc21` (stereo not given) had an IC50 in data set [1] of 271 nM. In data set [2], this molecule had a CC50 above 10000 nM. Besides, the result in data set [3] was Active.

In the case of `CN(Cc1nc2c(CCCN3CCCCC3)cccc2[nH]1)C1CCCc2cccnc21` (stereo not given), the CC50 in data set [2] was found to be 8700 nM.

In data set [1], `CN(Cc1nc2cccc(CCCN)c2[nH]1)C1CCCc2cccnc21` (stereo not given) returned a half-inhibitory concentration (IC50) of 24 nM. Moreover, the outcome in data set [3] was Active.

With `CN(Cc1nc2cccc(CCCN3CCCCC3)c2[nH]1)C1CCCc2cccnc21` (stereo not given), the IC50 in data set [1] was 25 nM. Moreover, the outcome in data set [3] was Active.

For the molecule `CN(Cc1nc2cccc(CNCCN)c2[nH]1)C1CCCc2cccnc21` (stereo not given), inhibition in data set [1] was half-maximal at 540 nM (IC50). Also, the cytotoxic concentration (CC50) in data set [2] is above 20000 nM. In data set [3], the result was Active.

Turning to `CN(Cc1nc2ccccc2[nH]1)C1CCCc2cccnc21` (stereo not given), the IC50 in data set [1] stood at 1350 nM. The same molecule had a cytotoxic concentration (CC50) in data set [2] of 5300 nM. Moreover, in data set [3], the result was Active.
